Patent EP0370436A2, “Novel benzothiazole and benzimidazole derivatives and antiulcer agent containing the same” (MEIJI SEIKA KAISHA LTD., priority 1988, dated 1990)
Marks after values point to notes of the source that are not given here.

Key:
Assay type in all cases: in vivo
male Wister rats = experiment: Submerged restraint stress ulcer test; conditions: Rattus norvegicus, oral, once, 30 mg/5 ml/kg body weight in 0.5% CMC, 1 h before 6 h water immersion restraint stress, read-out: Ulceration inhibitory ratio (%)
Procedure: A test compound as shown in Table 1 was suspended in 0.5% carboxymethylcellulose (CMC) and orally administered once to male Wister rats aged 11 weeks, which had been fasted for 18 hours, at a dose of 30 mg/5 ml/kg body weight. Similarly, 5 ml of 0.5% CMC was administered to a control group. One hour after the administration of the test compound, the rats were kept in restraining gages and immersed in water at 20 to 22°C up to the chest. Then, these animals were allowed to stand as such for six hours so as to load a stress. After pulling up from the water, each animal was sacrificed by vertebral cervical dislocation and the stomach was taken out. 5 ml of a 5% aqueous solution of formaldehyde was injected into the stomach and the stomach was immersed in said solution for 30 minutes for fixation. The specimen thus fixed was cut along the curvatura ventriculi major and the major axis of the formed ulcer was measured with a slide calipers (mm). The sum of the major axes of the total ulcers was made an ulcer index.
The ulceration inhibitory ratio was calculated according to the following equation: [formula]

male Donryu rats [1] = experiment: Aspirin-induced ulcer test; conditions: oral, 30 mg/5 ml/kg body weight, 1 h before Aspirin 300 mg/5 ml/kg oral, sacrificed after four hours
Procedure: A test compound suspended in 0.5% carboxymethylcellulose orally administered to male Donryu rats, which had been fasted for 24 hours, at a dose of 30 mg/5 ml/kg body weight. Similarly, 5 ml of 0.5% CMC was administered to a control group. One hour after the administration of the test compound, Aspirin suspended in 0.5% CMC was orally administered to the rats at a dose of 300 mg/5 ml/kg body weight. After four hours, each animal was sacrificed and the stomach was taken out and treated with an aqueous solution of formaldehyde to determine the ulceration inhibitory ratio in the same manner as in the submerged restrain stress ulcer test.

male Donryu rats [2] = experiment: Histamine-induced ulcer test; conditions: oral, once, 30 mg/5 ml/kg, 1 h before histamine dihydrochloride 200 mg/5 ml/kg i.p., sacrificed after five hours
Procedure: A compound obtained in Example 2 was suspended in 0.5% CMC and orally administered once to male Donryu rats, which had been fasted for 24 hours, at a dose of 30 mg/5 ml/kg. Similarly, 5 ml of 0.5% CMC was administered to a control group. One hour after the administration of the test compound, a solution of histamine dihydrochloride in a physiological saline solution was intraperitoneally administered to the rats at a dose of 200 mg/5 ml/kg. After five hours, each animal was sacrificed and the stomach was taken out and treated with an aqueous solution of formaldehyde to determine the ulceration inhibitory ratio in the same manner as in the above-described submerged restrain stress ulcer test. As a result, the ulceration inhibitory ratio was 50%.

male Donryu rats [3] = experiment: Ethanol-induced ulcer test; conditions: oral, 50 mg/5 ml/kg body weight, 1 h before 100% ethanol 5 ml/kg oral, sacrificed after one hour
Procedure: A compound obtained in Example 2 was suspended in 0.5% CMC and orally administered to male Donryu rats, which had been fasted for 48 hours and abstained from water for 24 hours, at a dose of […]. Similarly, 5 ml of 0.5% CMC was administered to a control group. One hour after the administration of the test compound, 100% ethanol was orally administered to the rats at a dose of 5 ml/kg body weight. After one hour, each animal was sacrificed and the stomach was taken out and treated in the above-mentioned manner. Then, erosion formation in the stomach was observed.
As a result, in a control group to which 0.5% CMC was given alone, erosion was formed at a frequency of almost 100%. In contrast thereto, in a test group to which the test compound was administered at a dose of 50 mg/5 ml/kg body weight, erosion formation was inhibited at a frequency of almost 100%. 5. Acute toxicity

male ICR mice = experiment: Acute toxicity; conditions: oral, once, 1,000 mg/10 ml/kg body weight in 0.5% CMC; three male ICR mice; observed for seven days
From the text: A compound prepared in Example 2 was suspended in 0.5% CMC to give a predetermined concentration. Then, three male ICR mice aged 5 weeks were forced to orally take the above suspension once.

Compound | inhibition in vivo at 30 mg/kg (male Wister rats) [%] | other results
CCOCCSc1nc2cc(Cl)ccc2s1 [Example 1, 5-Chloro-2-[(2-ethoxyethyl)thio]benzothiazole] | 57 | Ulceration inhibitory ratio (%) (male Donryu rats [1]): 21.3%
CCOCC[S+]([O-])c1nc2cc(Cl)ccc2s1 (stereo not shown) [Example 2, 5-Chloro-2-[(2-ethoxyethyl)sulfinyl]benzothiazole] | 93 | ulceration inhibitory ratio (male Donryu rats [2]): 50%; Ulceration inhibitory ratio (%) (male Donryu rats [1]): 85* %; erosion formation was inhibited at a frequency of (male Donryu rats [3]): ~100%; acute toxicity (death of animals) (male ICR mice): no animal died
CCOCCS(=O)(=O)c1nc2cc(Cl)ccc2s1 [Example 3, 5-Chloro-2-[(2-ethoxyethyl)sulfonyl]benzothiazole] | 35.3 | 
CCOCC[S+]([O-])c1nc2ccccc2s1 (stereo not shown) [Example 4, 2-[(2-Ethoxyethyl)sulfinyl]benzothiazole] | 59.9 | 
[O-][S+](CCO)c1nc2cc(Cl)ccc2s1 (stereo not shown) [Example 9, 5-Chloro-2-[(2-hydroxyethyl)sulfinyl]benzothiazole] | 58.5 | 
[O-][S+](CCOCCOCCO)c1nc2cc(Cl)ccc2s1 (stereo not shown) [Example 11, 5-Chloro-2-[{2-(2-hydroxyethoxy)ethoxy}ethylsulfinyl]benzothiazole] | 63.5 | 
CCOCC[S+]([O-])c1nc2ccccc2[nH]1 (stereo not shown) [Example 17, 2-[(2-Ethoxyethyl)sulfinyl]benzimidazole] | 73.6 | 
COc1ccc2[nH]c([S+]([O-])Cc3ncc(C)c(OC)c3C)nc2c1 (stereo not shown) [omeprazole, reference compound] | 99 | 
